This is an account of results in ChEMBL document CHEMBL4342403, “New evolutions in the BACE1 inhibitor field from 2014 to 2018” (Bioorg Med Chem Lett, 2019).

Molecules are shown by their SMILES.

Data set [1] deals with Homo sapiens. Nature of the data set: In vivo inhibition of BACE1 in human assessed as reduction in amyloidbeta40 level in CSF at 25 mg relative to control. Format: functional.
Data set [2] concerns Homo sapiens. Nature of the data set: In vivo inhibition of BACE1 in human assessed as reduction in amyloidbeta40 level in CSF at 50 mg relative to control. It is filed as functional.
Data set [3] relates to Homo sapiens. The data set is described as follows: In vivo inhibition of BACE1 in human assessed as reduction in amyloidbeta40 level in CSF at 100 mg relative to control. Format: functional.
Data set [4] concerns Homo sapiens. The data set is described as follows: In vivo inhibition of BACE1 in human assessed as reduction in amyloidbeta40 level in CSF at 200 mg relative to control. It is filed as functional.
The target in data set [5] is T1, Beta-secretase 1 (Homo sapiens, UniProt P56817). The data set is described as follows: Inhibition of BACE1 (unknown origin) by cell-based assay.
T1 sequence (P56817 whole entry): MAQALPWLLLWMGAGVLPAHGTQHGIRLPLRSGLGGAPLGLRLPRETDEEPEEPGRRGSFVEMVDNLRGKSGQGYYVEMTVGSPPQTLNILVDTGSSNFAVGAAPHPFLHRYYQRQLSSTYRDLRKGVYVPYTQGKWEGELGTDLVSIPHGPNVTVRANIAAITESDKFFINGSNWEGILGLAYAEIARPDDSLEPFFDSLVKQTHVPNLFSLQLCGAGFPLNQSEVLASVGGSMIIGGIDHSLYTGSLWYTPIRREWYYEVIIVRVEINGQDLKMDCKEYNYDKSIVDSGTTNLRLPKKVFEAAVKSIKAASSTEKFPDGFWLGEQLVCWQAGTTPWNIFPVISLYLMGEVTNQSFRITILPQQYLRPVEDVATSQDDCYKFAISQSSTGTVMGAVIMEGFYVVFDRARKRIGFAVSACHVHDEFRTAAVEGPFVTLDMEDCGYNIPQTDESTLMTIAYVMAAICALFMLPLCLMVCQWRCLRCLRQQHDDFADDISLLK
The target of data set [6] is T1, Beta-secretase 1. Nature of the data set: Inhibition of human BACE1 expressed in Escherichia coli preincubated for 1 hr followed by Mca-Ser-Glu-Val-Asn-Leu-Asp-Ala-Glu-Phe-Lys(Dnp)-OH substrate addition by spectroflurimetric assay.
In data set [7] the target is T1, Beta-secretase 1. The data set is described as follows: Inhibition of BACE1 (unknown origin).
In data set [8] the target is T2, Beta-secretase 2 (Homo sapiens, UniProt Q9Y5Z0).
T2 sequence (Q9Y5Z0 whole entry): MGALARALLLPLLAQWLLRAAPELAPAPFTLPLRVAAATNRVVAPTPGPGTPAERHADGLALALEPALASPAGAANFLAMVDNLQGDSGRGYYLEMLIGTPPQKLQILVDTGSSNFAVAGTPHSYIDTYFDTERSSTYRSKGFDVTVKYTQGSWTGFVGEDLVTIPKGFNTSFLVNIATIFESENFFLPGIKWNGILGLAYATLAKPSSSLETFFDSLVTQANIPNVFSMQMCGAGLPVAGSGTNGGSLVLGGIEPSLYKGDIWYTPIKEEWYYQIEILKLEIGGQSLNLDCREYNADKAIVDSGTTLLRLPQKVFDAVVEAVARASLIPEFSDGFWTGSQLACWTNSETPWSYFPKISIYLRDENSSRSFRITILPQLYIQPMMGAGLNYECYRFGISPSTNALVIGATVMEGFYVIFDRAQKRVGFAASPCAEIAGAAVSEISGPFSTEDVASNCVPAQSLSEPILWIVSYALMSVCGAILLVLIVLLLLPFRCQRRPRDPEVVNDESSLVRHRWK
The data set is described as follows: Inhibition of BACE2 (unknown origin).

In a further data set the target is P-glycoprotein (ABCB1) (Homo sapiens, UniProt P08183). The data set is described as follows: Substrate activity at p-glycoprotein (unknown origin) assessed as efflux ratio. Conditions: not told.
Chain of P-glycoprotein (ABCB1) (P08183 whole entry): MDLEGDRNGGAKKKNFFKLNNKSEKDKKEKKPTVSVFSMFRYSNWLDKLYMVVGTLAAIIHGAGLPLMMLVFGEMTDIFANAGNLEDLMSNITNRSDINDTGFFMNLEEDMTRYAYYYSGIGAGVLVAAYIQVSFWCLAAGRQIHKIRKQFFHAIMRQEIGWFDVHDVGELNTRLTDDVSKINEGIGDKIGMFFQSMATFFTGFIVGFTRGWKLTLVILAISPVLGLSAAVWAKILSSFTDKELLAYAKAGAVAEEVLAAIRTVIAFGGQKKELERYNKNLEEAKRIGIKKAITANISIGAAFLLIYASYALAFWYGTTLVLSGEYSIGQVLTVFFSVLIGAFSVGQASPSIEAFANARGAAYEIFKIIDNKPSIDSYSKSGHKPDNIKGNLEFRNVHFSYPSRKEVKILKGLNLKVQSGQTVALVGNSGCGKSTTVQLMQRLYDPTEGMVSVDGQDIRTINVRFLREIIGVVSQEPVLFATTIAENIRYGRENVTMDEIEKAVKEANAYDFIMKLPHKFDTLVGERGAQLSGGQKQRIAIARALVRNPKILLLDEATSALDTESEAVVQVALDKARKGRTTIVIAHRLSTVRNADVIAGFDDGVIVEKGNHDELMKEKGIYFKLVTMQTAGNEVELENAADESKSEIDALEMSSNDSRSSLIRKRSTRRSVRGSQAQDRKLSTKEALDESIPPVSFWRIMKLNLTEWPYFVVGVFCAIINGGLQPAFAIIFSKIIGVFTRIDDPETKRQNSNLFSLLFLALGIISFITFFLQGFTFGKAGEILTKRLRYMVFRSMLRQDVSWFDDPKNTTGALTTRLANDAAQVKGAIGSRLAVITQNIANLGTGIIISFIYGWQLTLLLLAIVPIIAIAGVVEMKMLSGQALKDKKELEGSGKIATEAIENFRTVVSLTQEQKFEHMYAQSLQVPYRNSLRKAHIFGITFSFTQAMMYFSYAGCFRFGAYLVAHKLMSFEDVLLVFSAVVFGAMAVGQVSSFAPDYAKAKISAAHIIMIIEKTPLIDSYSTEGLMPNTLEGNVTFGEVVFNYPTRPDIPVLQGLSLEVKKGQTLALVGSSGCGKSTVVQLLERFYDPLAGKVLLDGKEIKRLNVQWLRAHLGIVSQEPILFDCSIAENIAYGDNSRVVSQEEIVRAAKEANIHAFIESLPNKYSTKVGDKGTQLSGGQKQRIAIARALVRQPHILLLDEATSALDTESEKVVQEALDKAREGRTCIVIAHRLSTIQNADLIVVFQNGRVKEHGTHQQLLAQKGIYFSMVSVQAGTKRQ
Data set [9] addresses T1, Beta-secretase 1. The data set is described as follows: Inhibition of BACE1 (unknown origin) assessed as reduction in amyloidbeta 40 level after 24 hrs by cell-based sandwich ELISA.
The target in another data set is Cathepsin D (Homo sapiens, UniProt P07339). The data set is described as follows: Inhibition of recombinant Cathepsin D (unknown origin) expressed in CHO cells preincubated for 1 hr followed by substrate addition and measured after 1 hr by FRET assay. Format: cell-based.
Chain of Cathepsin D (P07339 65-162 limits assumed): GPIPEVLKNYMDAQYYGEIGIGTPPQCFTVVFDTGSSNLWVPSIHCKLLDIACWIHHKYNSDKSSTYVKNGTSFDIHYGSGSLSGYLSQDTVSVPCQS
Chain of Cathepsin D (P07339 169-412 limits assumed): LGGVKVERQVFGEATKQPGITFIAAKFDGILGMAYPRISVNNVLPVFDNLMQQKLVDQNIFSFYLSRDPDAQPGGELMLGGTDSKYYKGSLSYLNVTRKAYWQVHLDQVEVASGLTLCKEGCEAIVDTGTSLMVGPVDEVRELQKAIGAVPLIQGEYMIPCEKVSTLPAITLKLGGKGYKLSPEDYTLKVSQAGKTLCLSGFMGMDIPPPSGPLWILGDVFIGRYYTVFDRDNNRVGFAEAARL
Data set [10] has as its target Beta-secretase 1 (Rattus norvegicus, UniProt P56819). Nature of the data set: Inhibition of BACE1 in Wistar rat neuronal cell suspension after 1 to 3 days by ELISA. On the technique in general: An ELISA detects its analyte on a solid surface through an enzyme-linked reagent.
Data set [11] deals with T1, Beta-secretase 1. Nature of the data set: Inhibition of C-terminal His6-tagged human BACE1 expressed in mammalian expression system preincubated for 1 hr followed by substrate addition and measured after 1 hr by FRET assay.
The target in data set [12] is T2, Beta-secretase 2. The data set is described as follows: Inhibition of C-terminal His6-tagged human BACE2 expressed in mammalian expression system preincubated for 1 hr followed by substrate addition and measured after 1 hr by FRET assay.
Another data set deals with Mus musculus. The data set is described as follows: In vivo inhibition of BACE1 in C57B1/6J mouse assessed as reduction in amyloidbeta 40 level in brain at 30 mg/kg, po measured at 4 hrs post dose by ELISA relative to control. Format: functional.
Data set [13] deals with T1, Beta-secretase 1. The data set is described as follows: Inhibition of BACE1 in human H4 cells transfected with APP695 assessed as […] incubated for 18 hrs by ELISA. Format: cell-based.
Data set [14] is described as follows: Dissociation constant, pKa of the compound. It is filed as physicochemical.
Data set [15] deals with T1, Beta-secretase 1. Nature of the data set: Inhibition of human BACE1 using Biotin-XSEVNLDAEFRHDSGC as substrate incubated for 2 hrs by fluorescence method.
Data set [16] concerns the target T1, Beta-secretase 1. The data set is described as follows: Inhibition of BACE1 in human SH-SY5Y cells expressing betaAPP assessed as reduction in amyloidbeta (1 to 40 residues) level incubated for 24 hrs by HTRF assay. It is filed as cell-based.
The target of data set [17] is T1, Beta-secretase 1. The data set is described as follows: Inhibition of BACE1 in human SK-N-BE(2) cells expressing human APP695 assessed as reduction in amyloidbeta level incubated for 18 hrs by sandwich ELISA. Format: cell-based.
Data set [18] addresses T1, Beta-secretase 1. Nature of the data set: Inhibition of human BACE1 using Biotin-XSEVNLDAEFRHDSGC as substrate incubated for […] by fluorescence method.
For data set [19], the target named is T1, Beta-secretase 1. The data set is described as follows: Inhibition of BACE1 (unknown origin) incubated for 120 mins using APP swedish mutant as substrate by FRET assay.
Data set [20] addresses T2, Beta-secretase 2. Nature of the data set: Inhibition of BACE2 (unknown origin) incubated for 450 mins using APP swedish mutant as substrate by FRET assay.
In data set [21] the test system is Canis familiaris. The data set is described as follows: In vivo inhibition of BACE1 in Beagle dog assessed as reduction in amyloidbeta (1 to 42 residues) at 0.16 mg/kg, po measured at 8 hrs post dose relative to baseline. Format: functional. Conditions: Canis lupus familiaris.
The subject of data set [22] is Canis familiaris. The data set is described as follows: In vivo inhibition of BACE1 in Beagle dog assessed as reduction in amyloidbeta (1 to 42 residues) at 0.31 mg/kg, po measured at 8 hrs post dose relative to baseline. It is filed as functional. Conditions: Canis lupus familiaris.
Data set [23] relates to Canis familiaris. Nature of the data set: In vivo inhibition of BACE1 in Beagle dog assessed as reduction in amyloidbeta (1 to 42 residues) at 1.25 mg/kg, po measured at 8 hrs post dose relative to baseline. Format: functional. Conditions: Canis lupus familiaris.
For data set [24], the target named is T1, Beta-secretase 1. Nature of the data set: Inhibition of BACE1 in human SK-N-BE(2) cells expressing human APP695 assessed as reduction in amyloidbeta (1 to 42 residues) level incubated for 18 hrs by sandwich ELISA. It is filed as cell-based.

Chain of Beta-secretase 1 (Rattus norvegicus, UniProt P56819) (P56819 whole entry): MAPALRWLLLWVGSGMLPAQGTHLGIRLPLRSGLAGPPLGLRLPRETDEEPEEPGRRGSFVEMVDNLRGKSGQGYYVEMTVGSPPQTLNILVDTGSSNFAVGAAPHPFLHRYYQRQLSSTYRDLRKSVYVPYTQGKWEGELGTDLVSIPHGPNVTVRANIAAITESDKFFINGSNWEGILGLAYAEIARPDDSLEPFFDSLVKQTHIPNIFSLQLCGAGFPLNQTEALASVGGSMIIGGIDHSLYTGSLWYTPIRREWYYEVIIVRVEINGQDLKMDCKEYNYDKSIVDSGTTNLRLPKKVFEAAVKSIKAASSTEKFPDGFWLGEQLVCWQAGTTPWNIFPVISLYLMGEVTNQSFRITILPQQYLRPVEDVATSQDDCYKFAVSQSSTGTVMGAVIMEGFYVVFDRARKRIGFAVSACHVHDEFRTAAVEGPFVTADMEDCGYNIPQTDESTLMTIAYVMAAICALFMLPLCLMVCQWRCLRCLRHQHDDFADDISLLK

What is called IC50 is the point on the concentration scale where inhibition reaches its midpoint. In the case of `C[C@H]1OC[C@]2(c3cc(NC(=O)c4cnc(C(F)F)cn4)ccc3F)N=C(N)SC[C@H]12` [ELENBECESTAT], the “inhibition (INH)” value came out at 56% with Homo sapiens [1], 71% with Homo sapiens [2], 83% with Homo sapiens [3] and 90% with Homo sapiens [4]. The molecule further gave an IC50 against Beta-secretase 1 [5] of 7 nM.
`NC1=N[C@@]2(COc3ccc(NC(=O)c4cnc(OCC(F)(F)F)cn4)cc32)[C@H](C(F)(F)F)C1` yielded an IC50 against Beta-secretase 1 [6] of 7080 nM.
One may read the efflux ratio as a quotient of directional permeabilities that is used to spot active efflux. For the molecule `C[C@@]1(c2cc(NC(=O)c3cnc(OCF)cn3)ccc2F)C[C@@H](C(F)F)SC(N)=N1`, the IC50 on Beta-secretase 1 [7] turned out to be 6.23 nM; against Beta-secretase 2 [8], 0.19 nM. Further, on P-glycoprotein (ABCB1), the efflux ratio turned out to be 1.1.
As for `Cc1cc(Cl)cnc1C(=O)Nc1ccc2c(c1)[C@@]1(C)N=C(N)C(C)(C)S(=O)(=O)[C@@H]1CCO2`, the IC50 at Beta-secretase 1 [9] is 6 nM; at Cathepsin D, > 100000 nM.
Molecule `NC1=N[C@@]2(c3cccc(NC(=O)c4cnc(C(F)F)cn4)c3)CCO[C@H]2CS1` had an IC50 at Beta-secretase 1 [10] of 8 nM.
Take `NC1=N[C@](CF)(c2cc(NC(=O)c3cnc(Cl)cn3)ccc2F)[C@@H]2C[C@]2(C(F)F)S1`: the IC50 against Beta-secretase 1 [11] worked out at 1.6 nM; against Beta-secretase 2 [12] it was 13.2 nM; at Beta-secretase 1 [9], 3.7 nM.
For `COc1cnc(C(=O)Nc2ccc(F)c([C@]34CO[C@H](C(F)F)[C@H]3CSC(N)=N4)c2)cn1`, half-maximal inhibition against Beta-secretase 1 [10] (IC50) was put at 4 nM.
By inhibition in vivo is commonly meant how much of the control response was suppressed. `Cc1cc(C#N)cnc1C(=O)Nc1ccc(F)c([C@@]2(C)N=C(N)C(C)(C)[S@@]3(=O)=NCC[C@@H]23)c1`: the inhibition in vivo at 30 mg/kg in the data set with Mus musculus was 86%.
For orientation: pKa means the negative logarithm of the acid dissociation constant. A higher pKa goes with a group that holds its proton tightly. Consider `C[C@H]1C[C@H]2CSC(N)=N[C@@]2(c2cc(NC(=O)c3ccc(OC(F)F)cn3)ccc2F)CO1`, for which the IC50 on Beta-secretase 1 [13] is < 1 nM. Moreover, the pKa in data set [14] is 8.3.
For `C[C@@]1(c2cc(NC(=O)c3ccc(C#N)cn3)ccc2F)CCC(N)=N1`, the IC50 against Beta-secretase 1 [6] is 1050 nM. This molecule came in with a pKa in data set [14] of 11.1.
For the molecule `C[C@H]1SC(N)=N[C@](C)(c2cc(NC(=O)c3cnc(F)cn3)ccc2F)C12CC(F)(F)C2`, the IC50 at Beta-secretase 1 [15] worked out at 11.9 nM; at Beta-secretase 1 [16] it was 5.4 nM.
Take `C[C@]1(c2cc(NC(=O)c3ccc(C#N)cn3)ccc2F)N=C(N)C[C@H]1C(F)(F)F`: at Beta-secretase 1 [6], the IC50 came out at 182 nM. Moreover, in data set [14], the pKa turned out to be 9.
As to `COc1ncc(CC2CCOCC2)c2c1C[C@]1(c3ccc(F)cc3F)N=C(N)SC[C@@H]1C2`, the IC50 at Beta-secretase 1 [17] amounted to 0.76 nM.
Molecule `C#C[C@]1(c2cc(NC(=O)c3ccc(C#N)cn3)ccc2F)N=C(N)O[C@@H]2C[C@@H]21` yielded an IC50 on Beta-secretase 1 [18] of 22.8 nM.
In the case of `C[C@H]1OC[C@]2(c3cc(NC(=O)c4ccc(C#N)cn4)ccc3F)N=C(N)[C@](C)(C#N)C[C@H]12`, the values for the IC50 on Beta-secretase 1 [19], against Beta-secretase 2 [20] and at Beta-secretase 1 [24] were 1.86 nM, 14.5 nM and 1.26 nM, respectively. Further, the inhibition in vivo at 0.16 mg/kg in the data set with Canis familiaris [21] stood at 42%. Also, the inhibition in vivo at 0.31 mg/kg in the data set with Canis familiaris [22] came to 54%. Further, in the data set with Canis familiaris [23], the inhibition in vivo at 1.25 mg/kg is 80%.
